In patent US10975048B2, “Composition of 1,3,4-selenadiazole containing compounds with pharmacological activity” (HANGZHOU JENNIFER BIOTECH CO., LTD, priority 2015, dated 2021):
Where two headings read alike, the source gives them in different places.

Tests used:
GDH = GDH (Homo sapiens, UniProt P00367); experiment: GDH inhibition IC50; type: biochemical
KGA = biological target: T1, KGA (Homo sapiens, UniProt O94925); experiment: KGA inhibition IC50; type: biochemical
T1 sequence (O94925 55-669): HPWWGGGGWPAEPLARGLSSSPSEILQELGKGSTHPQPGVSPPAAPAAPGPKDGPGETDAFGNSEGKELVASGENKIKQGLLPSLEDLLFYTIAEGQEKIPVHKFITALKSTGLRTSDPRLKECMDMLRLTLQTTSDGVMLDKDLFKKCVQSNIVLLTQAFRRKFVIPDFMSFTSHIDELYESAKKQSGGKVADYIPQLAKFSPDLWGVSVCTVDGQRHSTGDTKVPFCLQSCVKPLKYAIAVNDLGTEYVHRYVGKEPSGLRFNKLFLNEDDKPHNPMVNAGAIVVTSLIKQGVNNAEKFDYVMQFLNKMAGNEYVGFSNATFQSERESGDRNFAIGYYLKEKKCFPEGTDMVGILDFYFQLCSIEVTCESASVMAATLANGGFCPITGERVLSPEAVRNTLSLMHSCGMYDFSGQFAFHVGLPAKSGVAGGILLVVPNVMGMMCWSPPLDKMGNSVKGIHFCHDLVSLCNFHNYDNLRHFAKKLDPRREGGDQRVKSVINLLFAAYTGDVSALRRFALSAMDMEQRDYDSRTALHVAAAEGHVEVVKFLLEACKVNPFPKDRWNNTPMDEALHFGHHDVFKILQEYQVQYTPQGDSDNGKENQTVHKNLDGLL
Excerpt: (§1) The molecular structure of specific compounds is described as follows: […]

A 549 lung cancer cells = experiment: Inhibition of A549 lung cancer cells; type: cell-based; conditions: for A549 Max-INH: maximal inhibition; for IC50: Homo sapiens
Excerpt: as §1

[1] = A549 cells, read-out: A549 IC50

GDH, sequence (P00367 54-558): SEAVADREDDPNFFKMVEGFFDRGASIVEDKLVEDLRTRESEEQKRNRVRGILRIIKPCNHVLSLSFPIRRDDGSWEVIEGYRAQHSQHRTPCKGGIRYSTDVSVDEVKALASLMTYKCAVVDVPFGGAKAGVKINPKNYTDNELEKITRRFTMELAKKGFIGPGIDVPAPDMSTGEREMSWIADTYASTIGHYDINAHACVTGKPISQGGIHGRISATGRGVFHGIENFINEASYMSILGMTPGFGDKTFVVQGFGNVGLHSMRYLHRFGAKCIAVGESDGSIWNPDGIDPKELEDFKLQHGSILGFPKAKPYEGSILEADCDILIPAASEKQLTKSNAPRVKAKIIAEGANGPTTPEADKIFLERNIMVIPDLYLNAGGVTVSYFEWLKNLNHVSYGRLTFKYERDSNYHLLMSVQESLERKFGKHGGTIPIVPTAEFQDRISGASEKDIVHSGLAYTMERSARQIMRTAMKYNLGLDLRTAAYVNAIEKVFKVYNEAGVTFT

`ClCCc1nnc(Nc2ccccc2)[se]1` gave a melting point of 109 to 110 °C.

With `Cn1cc(CC(=O)Nc2nnc(CCCCc3ccc(NC(=O)Cc4cccc(OC(F)(F)F)c4)nn3)[se]2)c2ccccc21` the IC50 (GDH) was greater than 10000 nM, the IC50 (KGA; read-out: KGA IC50) was 1 nM and the “A549 Max-INH” value (A 549 lung cancer cells; A549 cells) was 90%. The IC50 (A 549 lung cancer cells; [1]) was 17 nM.

In the case of `Cn1ccc(CC(=O)Nc2nnc(CCSCCc3nnc(NC(=O)Cc4ccn(C)c4)s3)s2)c1`, the IC50 (GDH) is reported as greater than 10000 nM, the IC50 (KGA; read-out: KGA IC50) is reported as 130 nM and the “A549 Max-INH” value (A 549 lung cancer cells; A549 cells) is reported as 80%. It also gave an IC50 (A 549 lung cancer cells; [1]) of 6500 nM.

In the case of `N=C(N)NCc1nnc(Nc2ccccc2)[se]1`, the melting point is reported as 109 to 110 °C.

In the case of `Cn1ccc(CC(=O)Nc2nnc(CCSCCc3nnc(NC(=O)Cc4ccn(C)c4)[se]3)[se]2)c1`, the IC50 (GDH) is reported as greater than 10000 nM, the IC50 (KGA; read-out: KGA IC50) is reported as 60 nM and the “A549 Max-INH” value (A 549 lung cancer cells; A549 cells) is reported as 91%. It also gave an IC50 (A 549 lung cancer cells; [1]) of 3100 nM.

With `c1ccc(Nc2nnc(CCc3nnc(Nc4ccccc4)[se]3)[se]2)cc1` the melting point was 160 to 161 °C.

For `ClCCc1nnc(NCc2ccccc2)[se]1`, the melting point was 109 to 110 °C.

For `Cn1ccc(CC(=O)Nc2nnc(CCSCCc3nnc(N)[se]3)[se]2)c1`, the IC50 (GDH) was greater than 10000 nM, the IC50 (KGA) was 210 nM and the “A549 Max-INH” value (A 549 lung cancer cells; A549 cells) was 40%. For the same compound, the IC50 (A 549 lung cancer cells; [1]) was greater than 10000 nM.

With `O=C(Cc1cccc(OC(F)(F)F)c1)Nc1ccc(CCCCc2nnc(NC(=O)Cc3ccccn3)s2)nn1` the IC50 (GDH) was greater than 10000 nM, the “A549 Max-INH” value (A 549 lung cancer cells; A549 cells) was 70% and the IC50 (A 549 lung cancer cells; A549, read-out: A549 IC50) was 40 nM.

For `Nc1nnc(CCSCCc2nnc(NC(=O)C34CC5CC(CC(C5)C3)C4)[se]2)[se]1`, the IC50 (GDH) was greater than 10000 nM, the IC50 (KGA) was 4000 nM and the “A549 Max-INH” value (A 549 lung cancer cells; A549 cells) was 17%. For the same compound, the IC50 (A 549 lung cancer cells; [1]) was greater than 10000 nM.

For `O=C(Cc1cccc(OC(F)(F)F)c1)Nc1ccc(CCCCc2nnc(NC(=O)Cc3ccccn3)[se]2)nn1`, the IC50 (GDH) was greater than 10000 nM, the IC50 (KGA; read-out: KGA IC50) was 1 nM and the “A549 Max-INH” value (A 549 lung cancer cells; A549 cells) was 77%. The IC50 (A 549 lung cancer cells; [1]) was 17 nM.

With `Cn1cc(CC(=O)Nc2nnc(CCSCCc3nnc(N)s3)s2)c2ccccc21` the IC50 (GDH) was greater than 10000 nM, the IC50 (KGA; read-out: KGA IC50) was 140 nM and the “A549 Max-INH” value (A 549 lung cancer cells; A549 cells) was 55%. It also gave an IC50 (A 549 lung cancer cells; [1]) of 9700 nM.

For `Cn1cc(CC(=O)Nc2nnc(CCSCCc3nnc(N)[se]3)[se]2)c2ccccc21`, the IC50 (GDH) was greater than 10000 nM, the IC50 (KGA) was 110 nM and the “A549 Max-INH” value (A 549 lung cancer cells; A549 cells) was 84%. For the same compound, the IC50 (A 549 lung cancer cells; [1]) was 2050 nM.

With `c1ccc(Nc2nnc(CCSCCc3nnc(Nc4ccccc4)[se]3)[se]2)cc1` the melting point was 172 to 174 °C.

For `O=C(Nc1nnc(CCSCCc2nnc(NC(=O)C34CC5CC(CC(C5)C3)C4)[se]2)[se]1)C12CC3CC(CC(C3)C1)C2`, the IC50 (GDH) was greater than 10000 nM, the IC50 (KGA) was 1900 nM and the “A549 Max-INH” value (A 549 lung cancer cells; A549 cells) was 17%. For the same compound, the IC50 (A 549 lung cancer cells; [1]) was greater than 10000 nM.

For `O=C(Cc1ccccc1)Nc1nnc(CCSCCc2nnc(NC(=O)Cc3ccccc3)s2)s1`, the “A549 Max-INH” value (A 549 lung cancer cells; A549 cells) was 75% and the IC50 (A 549 lung cancer cells; [1]) was 870 nM.

`c1ccc(Nc2nnc(Cc3nnc(Nc4ccccc4)[se]3)[se]2)cc1` gave a melting point of 130 to 132 °C.

In the case of `Nc1nnc(CCSCCc2nnc(NC(=O)Cc3ccccc3)[se]2)[se]1`, the IC50 (GDH) is reported as greater than 10000 nM, the IC50 (KGA) is reported as 1400 nM and the “A549 Max-INH” value (A 549 lung cancer cells; A549 cells) is reported as 62%. For the same compound, the IC50 (A 549 lung cancer cells; [1]) was 6300 nM.

With `Cn1cc(CC(=O)Nc2nnc(CCSCCc3nnc(NC(=O)Cc4cn(C)c5ccccc45)s3)s2)c2ccccc21` the IC50 (GDH) was greater than 10000 nM, the IC50 (KGA; read-out: KGA IC50) was 280 nM and the “A549 Max-INH” value (A 549 lung cancer cells; A549 cells) was 80%. The IC50 (A 549 lung cancer cells; [1]) was 820 nM.

With `c1ccc(Nc2nnc(CCCCCc3nnc(Nc4ccccc4)[se]3)[se]2)cc1` the melting point was 165 to 171 °C.

In the case of `Cn1ccc(CC(=O)Nc2nnc(CCSCCc3nnc(N)s3)s2)c1`, the IC50 (GDH) is reported as greater than 10000 nM, the IC50 (KGA; read-out: KGA IC50) is reported as 570 nM and the “A549 Max-INH” value (A 549 lung cancer cells; A549 cells) is reported as 0%. For the same compound, the IC50 (A 549 lung cancer cells; [1]) was greater than 10000 nM.

Work on `c1ccc(Nc2nnc(CCCc3nnc(Nc4ccccc4)[se]3)[se]2)cc1` yielded a melting point of 198 to 201 °C.

In the case of `O=C(Cc1ccccc1)Nc1nnc(CCSCCc2nnc(NC(=O)Cc3ccccc3)[se]2)[se]1`, the IC50 (GDH) is reported as greater than 10000 nM, the IC50 (KGA; read-out: KGA IC50) is reported as 60 nM and the “A549 Max-INH” value (A 549 lung cancer cells; A549 cells) is reported as 66%. It also gave an IC50 (A 549 lung cancer cells; [1]) of 300 nM.

With `Cn1cc(CC(=O)Nc2nnc(CCSCCc3nnc(NC(=O)Cc4cn(C)c5ccccc45)[se]3)[se]2)c2ccccc21` the IC50 (GDH) was greater than 10000 nM, the IC50 (KGA; read-out: KGA IC50) was 27 nM and the “A549 Max-INH” value (A 549 lung cancer cells; A549 cells) was 90%. For the same compound, the IC50 (A 549 lung cancer cells; [1]) was 160 nM.

For `COc1ccc2c(c1)c(CC(=O)Nc1nnc(CCCCc3ccc(NC(=O)Cc4cccc(OC(F)(F)F)c4)nn3)[se]1)cn2C`, the IC50 (GDH) was greater than 10000 nM, the IC50 (KGA; read-out: KGA IC50) was 5 nM and the “A549 Max-INH” value (A 549 lung cancer cells; A549 cells) was 90%. For the same compound, the IC50 (A 549 lung cancer cells; [1]) was 10 nM.

In the case of `ClCCc1nnc(NCCc2ccccc2)[se]1`, the melting point is reported as 109 to 110 °C.
